In patent publication US7078389B2, “Chemically modified oligonucleotide for site-directed mutagenesis” (priority 1993, dated 2006):
“Also recorded” adds a separate entry of the source. {Pso} = 4'-hydroxymethyl-4,5',8-trimethylpsoralen through a two-carbon linker arm and a phosphodiester

Legend:
[1] = system: supF gene (250 bp fragment); assay: Triplex binding assay (32P-labelled oligonucleotide, gel electrophoresis); design: species or system E. coli; settings: for Binding of oligonucleotide to supF gene fragment: 32P-labelled oligomer 6×10^−8 M, oligomer:supF about 1:1, 2 hours at 37 degrees; for Competition with 32P-labelled AG10 for binding to supF: unlabelled competitor at 200-fold molar excess
Method: The target gene chosen was supF, an E. coli amber suppressor tyrosine tRNA gene, contained within the genome of a lambda phage vector, lambda supF as shown in FIG. 1. A 10 base homopurine oligonucleotide AG10 (5′AGGAAGGGGG 3′) capable of forming a triple strand at positions 167–176 in the supF gene was identified.
The 250 bp supF target was generated from lambda supF using the polymerase chain reaction. Each oligo (200 ng) was labelled with 50 μCi of gamma-^32P-ATP (Amersham, Arlington Heights, Ill.) and separated from unreacted gamma^32P-ATP by passage through a G-25 spin column (Boehringer Mannheim, Indianapolis, Ind.). The concentration of oligomer in the reaction mixture was 6×10^−8 M and the oligomer:supF ratio was approximately 1:1 on a molar basis. When present, competitors were used at 200-fold molar excess.
Following the 2 hour binding step, reaction mixtures were run on a 4% acrylamide gel in 90 mM Tris base, 90 mM boric acid, 20 mM MgCl2 with a 20% acrylamide plug. A 100 bp ladder (BRL, Bethesda, Md.) was end-labelled as described for oligomers and run on gels as a size reference. Following a 4 hour run at constant voltage (150 V), the gel was visualized by autoradiography for 1 hour using Kodak X-AR film. […] To assay for triplex formation, ^32P-labeled oligonucleotides, either AG10 (^5 AGGAAGGGGG^3) (SEQ ID NO:2) or the reverse sequence oligomer (GA10), were incubated with a […] double-stranded fragment containing the entire supF gene. The products of the binding reactions were visualized by polyacrylamide gel electrophoresis and autoradiography.
When no supF target DNA was present, there was no band observed at this position. […] In lanes 5–8, no binding of the ^32P-labelled GA10 to supF was detected: GA10 alone without supF; GA10 plus supF; GA10 plus supF with excess unlabelled GA10; GA10 plus supF with excess AG10.

supF gene = settings: free psoralen plus UVA, published data, FIG. 2B/5B; cited from earlier work

| Molecule | Binding of oligonucleotide to supF gene fragment [1] | Competition with 32P-labelled AG10 for binding to supF [1] | Occurrence of supF mutations at base pair 167 (supF gene) |
| --- | --- | --- | --- |
| 5′ GGGGGAAGGA 3′ (DNA, 5' {Pso}, backbone not given here; triplex-forming reverse control oligonucleotide) [GA10] | no binding; also recorded: failed to bind to supF; also recorded: did not bind | did not compete with AG10; also recorded: failed to bind to supF or to compete with AG10 for binding | – |
| 5′AGGAAGGGGG 3′ (DNA, 5' {Pso}, backbone not given here; triplex-forming oligonucleotide) [AG10, 10 base homopurine oligonucleotide capable of forming a triple strand at positions 167–176 in the supF gene] | Binding of labelled AG10 to the added supF DNA was demonstrated; also recorded: bound specifically to the supF gene | competed with the ^32P-labelled AG10 | – |
| COc1c2occc2cc2ccc(=O)oc12 [8-methoxypsoralen] | – | – | none of them occur at position 167; also recorded: none were found to occur at base pair 167 |
